# Reference: patent US20260234161A1, “RIFABUTIN ANALOGS FOR THE TREATMENT OF BACTERIAL DISEASES” (BIOVERSYS AG, priority 2023, published 2026)
# Where two headings read alike, the source gives them in different places.
# Assays:
# Assay type in all cases: cell-based
# [1] = test system: S. aureus (UAMS-1625 strain); test: MIC by broth microdilution, S. aureus; details: Staphylococcus aureus, 20 h, read-out: MIC S. aureus
# How it was run: (§1)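 CLSI broth microdilution in cation-adjusted Mueller Hinton broth, 5×10^5 CFU/mL inoculum; ADC (5%) added for M. avium and M. xenopi (M. xenopi inoculum from 7H9+ADC liquid culture). Two-fold series 16–0.016 μg/mL (M. abscessus, M. avium), 1–6×10^−5 μg/mL (M. xenopi); S. aureus 35° C 20 h, M. abscessus 30° C 4 days, others 37° C ≥7 days; MIC = lowest concentration without visible growth.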
# [2] = test system: A. baumannii (HUMC1 strain); test: MIC by broth microdilution, A. baumannii (RPMI + 10% FCS); details: Acinetobacter baumannii, read-out: MIC A. baumannii
# [3] = test system: M. abscessus (ATCC 19977); test: MIC by broth microdilution, M. abscessus in Middlebrook 7H9 broth + ADC; details: Mycobacteroides abscessus
# Method: (§2) MIC values were determined by broth microdilution method according to the CLSI guidelines with the following exceptions: MIC against A. baumannii was performed in RPMI medium supplemented with 10% FCS and MIC against M. abscessus was performed in Middlebrook 7H9 broth supplemented with Middlebrook ADC growth supplement (10%; see column “M. abscessus 7H9”). MIC forM abscessus was determined a second time in standard cation adjusted Mueller Hinton broth without growth supplement (see colum “M. abscessus MH”). All other MIC were performed in standard cation adjusted Mueller Hinton broth, supplemented with Middlebrook ADC growth supplement (5%) for the slow growing mycobacteria (M. xenopi, M. kansasii and M. avium).
# (§3) The following procedure applies to all species tested, except forM xenopi. From a fresh culture plate (from overnight to several days depending on the bacteria), cells were resuspended in 0.9% (w/v) saline solution and bacterial inoculum was prepared in the respective testing medium with 5×10^5 CFU/mL. For M. xenopi, the inoculum was prepared from a fresh liquid culture (7H9+ADC). The appropriate volumes of a 10 mg/mL compound solution were directly dispensed in the 96-well assay plate using a digital dispenser to create two-fold dilution series from 32 to 0.002 μg/mL final concentration for A. baumannii and S. aureus; from 16 to 0.016 μg/mL for M. abscessus and M. avium; and from 1 to 6×10^−5 μg/mL for M. kansasii and M. xenopi. 100 μL of bacterial suspension was finally added to the compounds. Plates were covered and incubated without shaking at 35° C. for 20 hours for A. baumanii and S. aureus; at 30° C. for 4 days for M. abscessus; and at 37° C. for 7 days (at least) for M. kansasii (covered with aluminum foil to avoid light exposure), M. avium and M. xenopi. Every experiment contained an antibiotic as quality control. MIC was determined visually as the lowest concentration of a compound that prevents visible growth of the bacteria.
# (§4) The in vitro activity of compounds described herein was determined against S. aureus (UAMS-1625 strain), A. baumannii (HUMC1 strain), M. abscessus (ATCC 19977), M. kansasii (ATCC 12478), M. avium (ATCC 25291), and M. xenopi (ATCC 19250).
# [4] = test system: M. abscessus (ATCC 19977); test: MIC by broth microdilution, M. abscessus in cation adjusted Mueller Hinton broth; details: Mycobacteroides abscessus
# How it was run: as §1
# M. kansasii (ATCC 12478) = test: MIC by broth microdilution, M. kansasii; details: Mycobacterium kansasii, ATCC12478, 168 h, cation adjusted Mueller Hinton broth + ADC (5%), 37° C., 7 days (at least)
# Method: as §2, §3, §4
# M. xenopi (ATCC 19250) = test: MIC by broth microdilution, M. xenopi; details: Mycobacterium xenopi, ATCC19250, 168 h, cation adjusted Mueller Hinton broth + ADC (5%), 37° C., 7 days (at least)
# Method: as §2, §3, §4
# M. avium (ATCC 25291) = test: MIC by broth microdilution, M. avium; details: Mycobacterium avium, ATCC25291, 168 h, cation adjusted Mueller Hinton broth + ADC (5%), 37° C., 7 days (at least)
# Method: as §2, §3, §4
# [5] = HUMC1 strain, RPMI medium + 10% FCS, 35° C., 20 hours
# [6] = ATCC19977, 96 h, ATCC 19977, Middlebrook 7H9 broth + ADC growth supplement (10%), 30° C., 4 days, read-out: MIC M. abscessus 7H9
# [7] = ATCC19977, 96 h, ATCC 19977, cation adjusted Mueller Hinton broth without growth supplement, 30° C., 4 days, read-out: MIC M. abscessus MH
SMILES,MIC [1],"MIC [2, 5]","MIC [3, 6]","MIC [4, 7]",MIC (M. kansasii (ATCC 12478)),MIC (M. xenopi (ATCC 19250)),MIC (M. avium (ATCC 25291)),MIC ([2]; 20 h),"MIC ([3]; ATCC19977, 96 h, read-out: MIC M. abscessus 7H9)","MIC ([4]; ATCC19977, 96 h, read-out: MIC M. abscessus MH)","MIC ([3]; ATCC19977, 7H9 broth, read-out: MIC value against M. abscessus in 7H9 broth)","MIC ([4]; ATCC19977, Mueller Hinton broth, read-out: MIC value against M. abscessus in Mueller Hinton broth)"
CO[C@H]1/C=C/O[C@@]2(C)Oc3c(C)c(O)c4c(c3C2=O)C2=NC3(CCN(CC(C)C)CC3)NC2=C(NC(=O)/C(C)=C\C=C\[C@H](C)[C@H](O)[C@@H](C)[C@@H](O)[C@@H](C)[C@H](OC(=O)N2CCC(c3ccccc3)CC2)[C@@H]1C)C4=O [Compound 1],0.5 µg/mL,0.25 µg/mL,0.125 µg/mL,0.5 µg/mL,4 ng/mL,0.03 µg/mL,0.125 µg/mL,–,–,–,–,–
CO[C@H]1/C=C/O[C@@]2(C)Oc3c(C)c(O)c4c(c3C2=O)C2=NC3(CCN(CC(C)C)CC3)NC2=C(NC(=O)/C(C)=C\C=C\[C@H](C)[C@H](O)[C@@H](C)[C@@H](O)[C@@H](C)[C@H](OC(=O)N2CCC(c3ccncc3)CC2)[C@@H]1C)C4=O [Compound 2],0.125 µg/mL,0.016 µg/mL,0.125 µg/mL,0.25 µg/mL,0.5 ng/mL,0.002 µg/mL,0.06 µg/mL,–,–,–,–,–
CO[C@H]1/C=C/O[C@@]2(C)Oc3c(C)c(O)c4c(c3C2=O)C2=NC3(CCN(CC(C)C)CC3)NC2=C(NC(=O)/C(C)=C\C=C\[C@H](C)[C@H](O)[C@@H](C)[C@@H](O)[C@@H](C)[C@H](OC(=O)N2CCC(N(C)c3ccccc3)CC2)[C@@H]1C)C4=O [Compound 4],0.5 µg/mL,0.125 µg/mL,0.25 µg/mL,1 µg/mL,2 ng/mL,0.016 µg/mL,0.25 µg/mL,–,–,–,–,–
CO[C@H]1/C=C/O[C@@]2(C)Oc3c(C)c(O)c4c(c3C2=O)C2=NC3(CCN(CC(C)C)CC3)NC2=C(NC(=O)/C(C)=C\C=C\[C@H](C)[C@H](O)[C@@H](C)[C@@H](O)[C@@H](C)[C@H](OC(=O)N2CCN(CCN3CCOCC3)CC2)[C@@H]1C)C4=O [Compound 13],0.06 µg/mL,≤ 0.002 µg/mL,0.5 µg/mL,0.5 µg/mL,–,–,–,–,–,–,–,–
CO[C@H]1/C=C/O[C@@]2(C)Oc3c(C)c(O)c4c(c3C2=O)C2=NC3(CCN(CC(C)C)CC3)NC2=C(NC(=O)/C(C)=C\C=C\[C@H](C)[C@H](O)[C@@H](C)[C@@H](O)[C@@H](C)[C@H](OC(=O)N2CCCN(c3ccccn3)CC2)[C@@H]1C)C4=O [Compound 15],0.06 µg/mL,0.008 µg/mL,0.5 µg/mL,1 µg/mL,–,–,–,–,–,–,–,–
CO[C@H]1/C=C/O[C@@]2(C)Oc3c(C)c(O)c4c(c3C2=O)C2=NC3(CCN(CC(C)C)CC3)NC2=C(NC(=O)/C(C)=C\C=C\[C@H](C)[C@H](O)[C@@H](C)[C@@H](O)[C@@H](C)[C@H](OC(=O)N2CCCN(c3ccc(F)cc3)CC2)[C@@H]1C)C4=O [Compound 16],0.25 µg/mL,0.03 µg/mL,1 µg/mL,2 µg/mL,–,–,–,–,–,–,–,–
CO[C@H]1/C=C/O[C@@]2(C)Oc3c(C)c(O)c4c(c3C2=O)C2=NC3(CCN(CC(C)C)CC3)NC2=C(NC(=O)/C(C)=C\C=C\[C@H](C)[C@H](O)[C@@H](C)[C@@H](O)[C@@H](C)[C@H](OC(=O)N2CCN(Cc3ccccc3)CC2)[C@@H]1C)C4=O [Compound 17],0.25 µg/mL,–,–,–,–,–,–,0.125 µg/mL,0.125 µg/mL,1 µg/mL,–,–
CO[C@H]1/C=C/O[C@@]2(C)Oc3c(C)c(O)c4c(c3C2=O)C2=NC3(CCN(CC(C)C)CC3)NC2=C(NC(=O)/C(C)=C\C=C\[C@H](C)[C@H](O)[C@@H](C)[C@@H](O)[C@@H](C)[C@H](OC(=O)N2CCC3(CCN(C)CC3)CC2)[C@@H]1C)C4=O [Compound 21],0.06 µg/mL,≤ 0.016 µg/mL,–,2 µg/mL,125 ng/mL,0.25 µg/mL,0.5 µg/mL,–,–,–,–,–
CCCCN1CCC(NC(=O)O[C@H]2[C@H](C)[C@H](O)[C@H](C)[C@@H](O)[C@@H](C)/C=C/C=C(/C)C(=O)NC3=C4NC5(CCN(CC(C)C)CC5)N=C4c4c(c(O)c(C)c5c4C(=O)[C@@](C)(O/C=C/[C@H](OC)[C@H]2C)O5)C3=O)CC1 [Compound 30],0.06 µg/mL,≤ 0.016 µg/mL,–,0.5 µg/mL,16 ng/mL,0.06 µg/mL,0.125 µg/mL,–,–,–,–,–
CCCCN1CCN(C(=O)O[C@H]2[C@H](C)[C@H](O)[C@H](C)[C@@H](O)[C@@H](C)/C=C/C=C(/C)C(=O)NC3=C4NC5(CCN(CC(C)C)CC5)N=C4c4c(c(O)c(C)c5c4C(=O)[C@@](C)(O/C=C/[C@H](OC)[C@H]2C)O5)C3=O)CC1 [Compound 50],0.125 µg/mL,0.03 µg/mL,–,0.25 µg/mL,8 ng/mL,0.008 µg/mL,0.125 µg/mL,–,–,–,–,–
CO[C@H]1/C=C/O[C@@]2(C)Oc3c(C)c(O)c4c(c3C2=O)C2=NC3(CCN(CC(C)C)CC3)NC2=C(NC(=O)/C(C)=C\C=C\[C@H](C)[C@H](O)[C@@H](C)[C@@H](O)[C@@H](C)[C@H](OC(=O)N2CCN(CC3CC3)CC2)[C@@H]1C)C4=O [Compound 56],0.125 µg/mL,≤ 0.016 µg/mL,–,0.25 µg/mL,4 ng/mL,0.008 µg/mL,0.06 µg/mL,–,–,–,–,–
CO[C@H]1/C=C/O[C@@]2(C)Oc3c(C)c(O)c4c(c3C2=O)C2=NC3(CCN(CC(C)C)CC3)NC2=C(NC(=O)/C(C)=C\C=C\[C@H](C)[C@H](O)[C@@H](C)[C@@H](O)[C@@H](C)[C@H](OC(=O)N2CCC(NC(C)C)CC2)[C@@H]1C)C4=O [Compound 63],0.06 µg/mL,≤ 0.016 µg/mL,–,2 µg/mL,125 ng/mL,0.25 µg/mL,0.5 µg/mL,–,–,–,–,–
CO[C@H]1/C=C/O[C@@]2(C)Oc3c(C)c(O)c4c(c3C2=O)C2=NC3(CCN(CC(C)C)CC3)NC2=C(NC(=O)/C(C)=C\C=C\[C@H](C)[C@H](O)[C@@H](C)[C@@H](O)[C@@H](C)[C@H](OC(=O)N2C[C@H]3CN(CC5CCCCC5)C[C@H]3C2)[C@@H]1C)C4=O [Compound 67],1 µg/mL,0.06 µg/mL,–,0.125 µg/mL,3 ng/mL,0.004 µg/mL,0.016 µg/mL,–,–,–,–,–
CO[C@H]1/C=C/O[C@@]2(C)Oc3c(C)c(O)c4c(c3C2=O)C2=NC3(CCN(CC(C)C)CC3)NC2=C(NC(=O)/C(C)=C\C=C\[C@H](C)[C@H](O)[C@@H](C)[C@@H](O)[C@@H](C)[C@H](OC(=O)N2CCC3(CCN(CC5CCCCC5)CC3)CC2)[C@@H]1C)C4=O [Compound 72],0.25 µg/mL,0.06 µg/mL,–,0.25 µg/mL,0.4 ng/mL,0.008 µg/mL,0.03 µg/mL,–,–,–,–,–
CO[C@H]1/C=C/O[C@@]2(C)Oc3c(C)c(O)c4c(c3C2=O)C2=NC3(CCN(CC(C)C)CC3)NC2=C(NC(=O)/C(C)=C\C=C\[C@H](C)[C@H](O)[C@@H](C)[C@@H](O)[C@@H](C)[C@H](OC(=O)NC2CCN(C3CCCCC3)CC2)[C@@H]1C)C4=O [Compound 77],0.06 µg/mL,≤ 0.016 µg/mL,–,1 µg/mL,30 ng/mL,0.06 µg/mL,0.25 µg/mL,–,–,–,–,–
"CO[C@H]1/C=C/O[C@@]2(C)Oc3c(C)c(O)c4c(c3C2=O)C2=NC3(CCN(CC(C)C)CC3)NC2=C(NC(=O)/C(C)=C\C=C\[C@H](C)[C@H](O)[C@@H](C)[C@@H](O)[C@@H](C)[C@H](OC(C)=O)[C@@H]1C)C4=O [Rifabutin, rifabutin]",0.016 µg/mL,≤ 0.002 µg/mL,8 µg/mL,16 µg/mL,–,–,–,–,–,–,8 µg/mL,16 µg/mL
